Experimental findings from patent US7799924B2, “Substituted homopiperidine, piperidine or pyrrolidine derivatives” (High Point Pharmaceuticals, LLC, priority 2002, dated 2010) are described below.

Each structure is given as a SMILES string.

On to `CN1CCC(c2noc(-c3ccc(-c4ccccc4)cc3)n2)CC1.CS(=O)(=O)O`, for which the melting point (as a rule, the temperature of the solid-liquid transition) lay in the range of 222 to 224 °C.
